Measurements from article PMC9875641, “Ophthalmic Solution of Smart Supramolecular Peptides to Capture Semaphorin 4D against Diabetic Retinopathy” (Advanced Science, 2022).

Legend:
[1] = tested on: in vitro BRB model (ARPE-19 layer and HUVEC layer)
[2] = target: T1, Cy5-labeled sSema4D (Homo sapiens, UniProt Q92854); assay: CLSM recognition and capture of sSema4D; type: binding; details: FITC-labeled SSP with Cy5-labeled sSema4D, 6 h
T1 construct: purchased Novoprotein Ltd. (Suzhou, China)
T1 sequence (Q92854 22-734 limits assumed): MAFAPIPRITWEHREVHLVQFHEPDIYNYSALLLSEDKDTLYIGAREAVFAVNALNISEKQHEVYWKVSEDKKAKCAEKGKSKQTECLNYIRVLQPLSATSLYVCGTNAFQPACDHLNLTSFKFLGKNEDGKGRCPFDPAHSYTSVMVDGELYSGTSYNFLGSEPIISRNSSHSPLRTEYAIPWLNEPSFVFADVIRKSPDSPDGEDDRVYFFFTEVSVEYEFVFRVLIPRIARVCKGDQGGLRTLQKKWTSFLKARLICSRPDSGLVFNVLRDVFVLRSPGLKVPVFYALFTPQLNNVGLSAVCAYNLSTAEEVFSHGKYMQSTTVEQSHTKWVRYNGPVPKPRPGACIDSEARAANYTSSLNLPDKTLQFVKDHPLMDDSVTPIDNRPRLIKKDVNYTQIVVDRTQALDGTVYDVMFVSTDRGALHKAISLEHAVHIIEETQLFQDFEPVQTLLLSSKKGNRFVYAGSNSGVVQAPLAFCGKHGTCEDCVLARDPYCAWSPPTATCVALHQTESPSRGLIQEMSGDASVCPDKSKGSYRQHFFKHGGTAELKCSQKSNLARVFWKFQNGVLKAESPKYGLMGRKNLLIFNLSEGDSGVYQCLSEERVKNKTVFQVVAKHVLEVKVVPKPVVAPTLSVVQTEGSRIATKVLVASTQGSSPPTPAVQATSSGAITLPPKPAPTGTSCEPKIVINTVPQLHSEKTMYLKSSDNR
Method: FITC‐labeled SSP‐1 or SSP‐2 and Cy5‐labeled sSema4D proteins were synthesized. Cy5‐labeled sSema4D were incubated with FITC‐labeled SSP‐1 and SSP‐2 nanostructure solutions for 6 h, respectively. […]
a resolution of 1.0 nm and a scanning speed of 300 nm/min. For each measurement, three spectra were collected and averaged.
CLSM observation. Sema4D protein was purchased from Novoprotein Ltd. (Suzhou, China). Sema4D protein cultured with SSP-1 or SSP-2 nanomaterials (30 μM) for 4 h were imaged using a Zeiss LSM710 confocal laser scanning microscope
(Ultra-VIEWVox, PerkinElmer). The parameters of confocal laser scanning microscope was a 40× objective lens.
Patient. Vitreous humor samples of DR patients were obtained immediately before intravitreal injection of anti-VEGF agents. Control vitreous humor samples were collected from nondiabetic patients receiving surgery for idiopathic macular hole. All of the human vitreous humor samples were collected based on informed consent. The vitreous samples were centrifuged at 4°C, and the supernatants were aliquoted into several sterile tubes and stored at -80°C. The procedure was approved by an ethics committee of Tongji Medical College, Huazhong University of Science and Technology, and strictly followed the Declaration of Helsinki guidelines.
Cell culture. […]

[3] = tested on: endothelial cells; assay: Wound-healing and transwell migration of endothelial cells induced by recombinant Sema4D; type: cell-based, mouse; details: wound-healing and transwell assays, n = 3; effect equal to anti-Sema4D antibody
[4] = tested on: mouse brain microvascular endothelial cells (MBMEC); assay: CCK-8 cytotoxicity; type: cell-based; details: CCK-8, 24 h incubation, concentrations up to 80 × 10^−6 M
Method: In addition, KLVFF sequence, a sheet structure with strong hydrogen‐bonding was introduced into SSPs, we could distinctly observe the secondary structure of SSPs by circular dichroism (CD) spectroscopy. […] The percentage of β‐sheet after incubation with sSema4D in SSP‐1 and SSP‐2 were 85.6% and 42.3%, respectively, indicative of a highly organized packing of NFs in SSP‐1. […] The high percentage of β‐sheet structure in NFs stabilized the formation of nanostructure networks, due to its strong hydrogen‐bonding KLVFF sequence. Moreover, we carried out the cytotoxicity of SSP‐1 and SSP‐2 by using a standard CCK‐8 (Figure 3D). […] Finally, we investigated the recognition of sSema4D and SSP‐1 and SSP‐2 by confocal laser scanning microscope (CLSM). […]
pericytes were cultured in Pericyte Medium (ScienCell, USA). bEnd.3 cells were purchased from ATCC and grown in DMEM with 10% fetal bovine serum.
Preparation method of nanoparticles. The nanomaterials FG-12 and FH-12 were added to a 1:1 mixture of propylene glycol and ethanol solution to form a 2 mM mother liquor. The mother solution was diluted in normal saline at 1:100 dilution to form a 20 μM nanoparticle solution. […]
solution was added. After 2 h incubation with CCK8 solution at 37℃ in a 5% CO2 atmosphere, the […] was evaluated by a fluorescence microplate reader (PerkinElmer, Waltham, MA, USA). real-time PCR. […]

[5] = tested on: retina; assay: Biosafety in the retina after intraocular injection; type: in vivo, mouse; details: for pathological changes in the retina (HE staining): 30 d after intraocular injection; for abnormalities in retinal pigment epithelium, rod and cone layer, outer nuclear layer and retinal ganglion cells (electron microscopy): mouse, in vivo
Text: After 30 d of SSP‐1 and SSP‐2 intraocular injection, the biosafety of SSP‐1 and SSP‐2 was systematically studied by H&E staining and electron microscopy.

[6] = tested on: pericytes; assay: Transwell migration of pericytes induced by recombinant Sema4D; type: cell-based, mouse; details: transwell assay, n = 3

C16‐FFVLK‐KNKAAKG [SSP-2, smart supramolecular peptide, C16‐FFVLK‐KNKAAKG, self-assembling, captures sSema4D]
transfer across the in vitro BRB [1]: effectively transferred across the BRB
recognition and trapping of sSema4D (merge images) [2]: could completely cover the sSema4D
recombinant Sema4D protein-induced endothelial cell migration [3]: inhibited
viability of MBMEC [4]: ~90%
pathological changes in the retina (HE staining) [5]: no significant pathological changes
abnormalities in retinal pigment epithelium, rod and cone layer, outer nuclear layer and retinal ganglion cells (electron microscopy) [5]: no significant abnormalities
recombinant Sema4D protein-induced pericyte migration [6]: reduced

C16‐FFVLK‐KQKRPRH [SSP-1, smart supramolecular peptide, C16‐FFVLK‐KQKRPRH, self-assembling, captures sSema4D]
transfer across the in vitro BRB [1]: effectively transferred across the BRB
recognition and trapping of sSema4D (merge images) [2]: could completely cover the sSema4D
recombinant Sema4D protein-induced endothelial cell migration [3]: inhibited
viability of MBMEC [4]: ~90%
pathological changes in the retina (HE staining) [5]: no significant pathological changes
abnormalities in retinal pigment epithelium, rod and cone layer, outer nuclear layer and retinal ganglion cells (electron microscopy) [5]: no significant abnormalities
recombinant Sema4D protein-induced pericyte migration [6]: reduced
